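Five concentrations, 48 hours, 96-well plates. Here, GI50 denotes the concentration required for 50% inhibition of growth. TGI: total growth inhibition.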
Columns and labels:
Test in all cases: growth of human tumour cells (NCI), 48 h
SF-295 CNS = system: SF-295 CNS
SNB-19 CNS = system: SNB-19 CNS
M14 melanoma = system: M14 melanoma
SR leukemia = system: SR leukemia
HCT-15 colon = system: HCT-15 colon
OVCAR-4 ovarian = system: OVCAR-4 ovarian
NCI-H522 lung = system: NCI-H522 lung
RPMI-8226 leukemia = system: RPMI-8226 leukemia

Structure (SMILES) | GI50 (SF-295 CNS) | TGI (SF-295 CNS) | GI50 (SNB-19 CNS) | TGI (SNB-19 CNS) | GI50 (M14 melanoma) | TGI (M14 melanoma) | GI50 (SR leukemia) | TGI (SR leukemia) | GI50 (HCT-15 colon) | TGI (HCT-15 colon) | GI50 (OVCAR-4 ovarian) | TGI (OVCAR-4 ovarian) | GI50 (NCI-H522 lung) | TGI (NCI-H522 lung) | GI50 (RPMI-8226 leukemia) | TGI (RPMI-8226 leukemia)
COc1cccc(/C=C2\COc3ccc(-c4ccccc4)cc3C2=O)c1 | 2.52 µM | 10.3 µM | 2.7 µM | 7.21 µM | 3.87 µM | 14.9 µM | 1.98 µM | > 100 µM | 1.78 µM | 4.72 µM | 2.79 µM | 7.63 µM | 1.86 µM | 4.06 µM | – | –
CC(=O)[O][Hg][c]1c(C)c(C)cc(C)c1C | 1.87 µM | 4.14 µM | 1.7 µM | 3.76 µM | 1.36 µM | 2.88 µM | 0.0629 µM | 2.21 µM | 1.49 µM | 3.88 µM | 0.566 µM | 1.37 µM | 0.194 µM | 0.486 µM | 1.6 µM | 6.11 µM
COc1ccc(N=N/C(C(=O)C(F)(F)F)=C(\O)c2ccc(Cl)cc2)cc1 | 2.67 µM | 11.9 µM | 16.5 µM | > 100 µM | 2.84 µM | 14.9 µM | 4.26 µM | 24.7 µM | 4.68 µM | > 100 µM | 21.6 µM | > 100 µM | 4.93 µM | 32.1 µM | 5.96 µM | 47.3 µM
CCOC(=O)c1cnc2c(C)cccc2c1Nc1ccc(C(C)=O)cc1 | 36.2 µM | > 100 µM | 40.2 µM | > 100 µM | 77.8 µM | > 100 µM | 60.8 µM | > 100 µM | 20.7 µM | > 100 µM | 13.5 µM | 55.3 µM | 14.9 µM | > 100 µM | 30.9 µM | > 100 µM
c1cc2c(cn1)Nc1ccncc1S2 | 52.7 µM | > 100 µM | 39 µM | > 100 µM | 32.6 µM | > 100 µM | – | – | 37.4 µM | > 100 µM | > 100 µM | > 100 µM | 40.4 µM | > 100 µM | 36.3 µM | > 100 µM
CC(=O)c1c(C)[nH]c(-c2nc3ccc(N4CCN(C)CC4)cc3[nH]2)c1-c1ccccc1 | 2.07 µM | 19.2 µM | 3.03 µM | > 100 µM | 1.1 µM | 19.4 µM | – | – | 0.719 µM | 18.9 µM | 2.55 µM | 43.2 µM | 0.258 µM | 14.4 µM | – | –
O=C1NC(=NCCCc2ccccc2)S/C1=C\c1ccc2ncccc2c1 | 4.75 µM | > 17.5 µM | 3.69 µM | > 22.4 µM | 9.63 µM | > 25 µM | 3.73 µM | 16.5 µM | 2.9 µM | > 25 µM | 3.72 µM | 13.6 µM | 4.47 µM | 9.17 µM | 5.52 µM | 14.6 µM
CN(CCCNC(=O)CCOCCOCCOCCNC(=O)Cc1ccc2ccc3cccc4ccc1c2c34)CCCNc1cc(-c2ccc3ccccc3c2)nc2ccccc12 | 1.57 µM | 3.75 µM | 0.51 µM | 0.991 µM | 0.591 µM | 1.14 µM | – | – | 1.19 µM | 2.81 µM | 0.538 µM | 1.18 µM | – | – | – | –
CCCCCCCCCCCC[n+]1ccc2ccccc2c1 | 0.882 µM | 2.74 µM | 0.995 µM | 2.22 µM | 0.588 µM | 2.79 µM | 0.75 µM | 2.57 µM | 2.6 µM | 13.8 µM | 0.486 µM | 2.33 µM | 0.41 µM | 1.88 µM | 0.295 µM | 0.949 µM
CO[C@H]1C[C@@H]2CC[C@@H](C)[C@@](O)(O2)C(=O)C(=O)N2CCCC[C@H]2C(=O)O[C@H]([C@H](C)C[C@@H]2CC[C@@H](OCCO)[C@H](OC)C2)CC(=O)[C@H](C)C=C(C)[C@@H](O)[C@@H](OC)C(=O)[C@H](C)C[C@H](C)/C=C/C=C/C=C1C | < 0.01 µM | 17.3 µM | – | 19.5 µM | 3.12 µM | 20.5 µM | < 0.01 µM | 10.2 µM | < 0.0115 µM | 18.5 µM | < 0.0124 µM | 17.1 µM | – | 17.7 µM | < 0.01 µM | 14.1 µM
O=C1Cc2cc(C(=O)NC3C[C@H]4CC[C@@H](C3)N4S(=O)(=O)CC3CCN(CCCC(F)(F)F)CC3)c(Cl)cc2N1 (stereo not given in full) | > 100 µM | > 100 µM | > 100 µM | > 100 µM | > 100 µM | > 100 µM | 26.5 µM | > 100 µM | > 100 µM | > 100 µM | > 100 µM | > 100 µM | > 100 µM | > 100 µM | > 100 µM | > 100 µM
